Measured values as given in US20240299385A1 (ReWind Therapeutics NV, priority 2021, published 2024).

Target: T1, human GPR17 receptor (Homo sapiens, UniProt Q13304)
T1 construct: host or cells: HEK-293
Test: Calcium mobilization functional assay (Fluo-8, FLIPR TETRA) in HEK-293 hGPR17 (Gα-q assay)
Assay type: cell-based
Details: antagonism of MDL29,951 (~EC80) induced Ca2+ signal; cell line (HEK-293 hGPR17 or HEK-293 Suchi5 hGPR17) not given
Method: HEK-293 cells stably expressing the human GPR17 receptor (HEK-293 hGPR17) developed by Axxam (Bresso, Milan, Italy) were cultured at 37° C. in a humidified atmosphere of 5% CO2. Cells were grown in EMEM supplemented with FBS (10%), Penicillin/Streptomycin (1%), Ultraglutamine I (2 mM), puromycin (0.6 μg/mL), G418 (0.4 mg/mL), zeocin (50 μg/mL). This cell line was used to test the compound antagonistic activity by monitoring the Gα-q based signaling. Signaling via Gα-q leads to mobilization of calcium from internal stores. Elevated intracellular calcium levels can then be measured with calcium-sensitive fluorescent dyes (e.g., Fluo 8-No Wash Dye).
GPR17 activation leads to both an increase in intracellular calcium (via Gα-q) and a decrease in cAMP levels (via Gα-i), implicating that both of these pathways play a role for in vivo function.
Experiments were performed using the below cell lines, as described in part 1: • HEK-293 hGPR17 (used to study the compounds acting via Gα-q pathway) • HEK-293 Suchi5 hGPR17 (used to study the compounds acting via Gα-i pathway, where the Gα-i signaling is switched to a Gα-q signaling thanks to the Gα-i/q chimera Suchi5)
GPR17 activation was able to induce an endoplasmic reticulum calcium (Ca^2+) store release in cytosol which could be measured using the fluorescent Ca^2+ sensitive dye Fluo-8 No Wash Dye as readout.
HEK-293 hGPR17 and HEK-293 Suchi5 hGPR17 were seeded at a density of 15,000 cells/well into poly-D-lysine coated black 384-well plates with clear bottom in complete medium. Cells were incubated overnight at 37° C. in a humidified atmosphere of 5% CO2. Twenty-four hours after seeding, the culture medium was carefully removed manually and the cells were loaded for 60 minutes at room temperature with the Ca^2+ sensitive Fluo-8 No Wash Dye, according to manufacturer's instructions. Cells were then assayed using a fluorometric imaging plate reader (FLIPR^TETRA). Fluorescence (excitation: 470-495 nm; emission: 515-575 nm) was recorded during the experiment. […] After twenty minutes, a second injection of MDL29,951 at ˜EC80 (500 nM for HEK-293 hGPR17 and 2 nM for HEK-293 Suchi5 hGPR17) in assay buffer was performed at the FLIPR^TETRA and the signal of the emitted fluorescence was recorded for additional 2 minutes. All the compound injections and incubations were performed in duplicate. For data quality and data analysis the Screener® 16.0.6 (Genedata) software was used.

T1 sequence (Q13304 whole entry): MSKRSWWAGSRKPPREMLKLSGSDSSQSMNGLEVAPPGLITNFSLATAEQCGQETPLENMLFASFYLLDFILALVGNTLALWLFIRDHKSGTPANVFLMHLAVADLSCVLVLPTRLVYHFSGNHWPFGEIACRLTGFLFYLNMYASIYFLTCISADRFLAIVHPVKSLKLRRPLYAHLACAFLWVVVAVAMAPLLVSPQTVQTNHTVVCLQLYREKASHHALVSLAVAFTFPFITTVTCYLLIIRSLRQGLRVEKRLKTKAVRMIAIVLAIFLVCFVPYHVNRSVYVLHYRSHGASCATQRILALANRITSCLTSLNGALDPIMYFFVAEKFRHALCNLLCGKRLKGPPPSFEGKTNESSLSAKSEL

Row | Structure (SMILES) | IC50
1 | Cc1[nH]c(-c2ccccc2)cc1S(=O)(=O)Nc1ccc(C#N)cc1F [Cpd 001, N-(4-cyano-2-fluorophenyl)-2-methyl-5-phenyl-1H-pyrrole-3-sulfonamide] | 0.5 to 5 µM
2 | O=S(=O)(Nc1cc(F)c(Br)cc1F)c1c[nH]c(-c2ccccc2)c1 [Cpd 003, N-(4-bromo-2,5-difluoro-phenyl)-5-phenyl-1H-pyrrole-3-sulfonamide] | < 0.5 µM
3 | N#Cc1ccc(NS(=O)(=O)c2c[nH]c(-c3cccc(F)c3)c2)c(F)c1 [Cpd 004, N-(4-cyano-2-fluoro-phenyl)-5-(3-fluorophenyl)-1H-pyrrole-3-sulfonamide] | < 0.5 µM
4 | N#Cc1ccc(NS(=O)(=O)c2c[nH]c(-c3ccc(F)cc3)c2)c(F)c1 [Cpd 007, N-(4-cyano-2-fluoro-phenyl)-5-(4-fluorophenyl)-1H-pyrrole-3-sulfonamide] | < 0.5 µM
5 | Cc1ccc(-c2cc(S(=O)(=O)Nc3ccc(C#N)cc3F)c[nH]2)cc1 [Cpd 008, N-(4-cyano-2-fluoro-phenyl)-5-(p-tolyl)-1H-pyrrole-3-sulfonamide] | 0.5 to 5 µM
6 | N#Cc1ccc(NS(=O)(=O)c2c[nH]cc2-c2ccccc2)c(F)c1 [Cpd 009, N-(4-cyano-2-fluorophenyl)-4-phenyl-1H-pyrrole-3-sulfonamide] | 0.5 to 5 µM
7 | N#Cc1ccc(NS(=O)(=O)c2c[nH]c(-c3ccc(Cl)cc3)c2)c(F)c1 [Cpd 011, 5-(4-chlorophenyl)-N-(4-cyano-2-fluoro-phenyl)-1H-pyrrole-3-sulfonamide] | 0.5 to 5 µM
8 | COc1ccc(-c2cc(S(=O)(=O)Nc3ccc(C#N)cc3F)c[nH]2)cc1 [Cpd 012, N-(4-cyano-2-fluoro-phenyl)-5-(4-methoxyphenyl)-1H-pyrrole-3-sulfonamide] | 5 to 50 µM
9 | N#Cc1ccc(NS(=O)(=O)c2c[nH]c(-c3ccccc3Cl)c2)c(F)c1 [Cpd 016, 5-(2-chlorophenyl)-N-(4-cyano-2-fluoro-phenyl)-1H-pyrrole-3-sulfonamide] | < 0.5 µM
10 | N#Cc1ccc(NS(=O)(=O)c2c[nH]c(Cc3ccccc3)c2)c(F)c1 [Cpd 019, 5-benzyl-N-(4-cyano-2-fluoro-phenyl)-1H-pyrrole-3-sulfonamide] | 0.5 to 5 µM
11 | N#Cc1ccc(NS(=O)(=O)c2cc(-c3ccccc3)[nH]c2F)c(F)c1 [Cpd 020, N-(4-cyano-2-fluorophenyl)-2-fluoro-5-phenyl-1H-pyrrole-3-sulfonamide] | 0.5 to 5 µM
12 | CC(C)c1cccc(-c2cc(S(=O)(=O)Nc3ccc(C#N)cc3F)c[nH]2)c1 [Cpd 022, N-(4-cyano-2-fluoro-phenyl)-5-(3-isopropylphenyl)-1H-pyrrole-3-sulfonamide] | 5 to 50 µM
13 | N#Cc1ccc(NS(=O)(=O)c2c[nH]c(-c3ccncc3)c2)c(F)c1 [Cpd 024, N-(4-cyano-2-fluoro-phenyl)-5-(4-pyridyl)-1H-pyrrole-3-sulfonamide] | 5 to 50 µM
14 | N#Cc1cccc(-c2cc(S(=O)(=O)Nc3ccc(C#N)cc3F)c[nH]2)c1 [Cpd 025, N-(4-cyano-2-fluoro-phenyl)-5-(3-cyanophenyl)-1H-pyrrole-3-sulfonamide] | < 0.5 µM
15 | N#Cc1ccc(NS(=O)(=O)c2c[nH]c(-c3ccccn3)c2)c(F)c1 [Cpd 026, N-(4-cyano-2-fluoro-phenyl)-5-(2-pyridyl)-1H-pyrrole-3-sulfonamide] | < 0.5 µM
16 | N#Cc1ccc(NS(=O)(=O)c2c[nH]c(-c3cccnc3)c2)c(F)c1 [Cpd 027, N-(4-cyano-2-fluoro-phenyl)-5-(3-pyridyl)-1H-pyrrole-3-sulfonamide] | 0.5 to 5 µM
17 | Cc1cc(C#N)ccc1NS(=O)(=O)c1c[nH]c(-c2ccccc2)c1 [Cpd 029, N-(4-cyano-2-methyl-phenyl)-5-phenyl-1H-pyrrole-3-sulfonamide] | 5 to 50 µM
18 | Cc1cc(NS(=O)(=O)c2c[nH]c(-c3ccccc3)c2)ccc1C#N [Cpd 031, N-(4-cyano-3-methyl-phenyl)-5-phenyl-1H-pyrrole-3-sulfonamide] | 0.5 to 5 µM
19 | COc1ccc(NS(=O)(=O)c2c[nH]c(-c3ccccc3)c2)c(F)c1 [Cpd 032, N-(2-fluoro-4-methoxy-phenyl)-5-phenyl-1H-pyrrole-3-sulfonamide] | 5 to 50 µM
20 | N#Cc1ccc(NS(=O)(=O)c2c[nH]cc2Cc2ccccc2)c(F)c1 [Cpd 034, 4-benzyl-N-(4-cyano-2-fluorophenyl)-1H-pyrrole-3-sulfonamide] | < 0.5 µM

Further lines, results first:

Row | IC50 | Structure (SMILES)
21 | 5 to 50 µM | CC(c1ccccn1)c1cc(S(=O)(=O)Nc2ccc(C#N)cc2F)c[nH]1 (centres unmarked)
22 | < 0.5 µM | N#Cc1ccc(NS(=O)(=O)c2c[nH]c(-c3ccccc3)c2)c(F)c1 [Cpd 002, N-(4-cyano-2-fluorophenyl)-5-phenyl-1H-pyrrole-3-sulfonamide]
23 | < 0.5 µM | Cc1cccc(-c2cc(S(=O)(=O)Nc3ccc(C#N)cc3F)c[nH]2)c1 [Cpd 005, N-(4-cyano-2-fluoro-phenyl)-5-(m-tolyl)-1H-pyrrole-3-sulfonamide]
24 | < 0.5 µM | N#Cc1ccc(NS(=O)(=O)c2c[nH]c(-c3cccc(Cl)c3)c2)c(F)c1 [Cpd 006, 5-(3-chlorophenyl)-N-(4-cyano-2-fluoro-phenyl)-1H-pyrrole-3-sulfonamide]
25 | < 0.5 µM | COc1cccc(-c2cc(S(=O)(=O)Nc3ccc(C#N)cc3F)c[nH]2)c1 [Cpd 010, N-(4-cyano-2-fluoro-phenyl)-5-(3-methoxyphenyl)-1H-pyrrole-3-sulfonamide]
26 | 5 to 50 µM | N#Cc1ccc(NS(=O)(=O)c2c[nH]c(C(=O)c3ccccc3)c2)c(F)c1 [Cpd 013, 5-benzoyl-N-(4-cyano-2-fluoro-phenyl)-1H-pyrrole-3-sulfonamide]
27 | < 0.5 µM | N#Cc1ccc(NS(=O)(=O)c2c[nH]c(-c3ccccc3F)c2)c(F)c1 [Cpd 014, N-(4-cyano-2-fluorophenyl)-5-(2-fluorophenyl)-1H-pyrrole-3-sulfonamide]
28 | < 0.5 µM | Cc1ccccc1-c1cc(S(=O)(=O)Nc2ccc(C#N)cc2F)c[nH]1 [Cpd 015, N-(4-cyano-2-fluoro-phenyl)-5-(o-tolyl)-1H-pyrrole-3-sulfonamide]
29 | < 0.5 µM | COc1ccccc1-c1cc(S(=O)(=O)Nc2ccc(C#N)cc2F)c[nH]1 [Cpd 017, N-(4-cyano-2-fluoro-phenyl)-5-(2-methoxyphenyl)-1H-pyrrole-3-sulfonamide]
30 | 0.5 to 5 µM | N#Cc1ccc(NS(=O)(=O)c2c[nH]c(C3CCCC3)c2)c(F)c1 [Cpd 018, N-(4-cyano-2-fluorophenyl)-5-cyclopentyl-1H-pyrrole-3-sulfonamide]
31 | 0.5 to 5 µM | N#Cc1ccc(NS(=O)(=O)c2c[nH]c(-c3cccc(C(F)(F)F)c3)c2)c(F)c1 [Cpd 021, N-(4-cyano-2-fluoro-phenyl)-5-[3-(trifluoromethyl)phenyl]-1H-pyrrole-3-sulfonamide]
32 | < 0.5 µM | N#Cc1ccc(NS(=O)(=O)c2c[nH]c(-c3ccccc3)c2F)c(F)c1 [Cpd 023, N-(4-cyano-2-fluorophenyl)-4-fluoro-5-phenyl-1H-pyrrole-3-sulfonamide]
33 | < 0.5 µM | N#Cc1cc(F)c(NS(=O)(=O)c2c[nH]c(-c3ccccc3)c2)cc1F [Cpd 028, N-(4-cyano-2,5-difluoro-phenyl)-5-phenyl-1H-pyrrole-3-sulfonamide]
34 | 0.5 to 5 µM | COc1cc(C#N)ccc1NS(=O)(=O)c1c[nH]c(-c2ccccc2)c1 [Cpd 030, N-(4-cyano-2-methoxy-phenyl)-5-phenyl-1H-pyrrole-3-sulfonamide]
35 | < 0.5 µM | Cc1c(S(=O)(=O)Nc2ccc(C#N)cc2F)c[nH]c1-c1ccccc1 [Cpd 033, N-(4-cyano-2-fluoro-phenyl)-4-methyl-5-phenyl-1H-pyrrole-3-sulfonamide]
